Assay results: paper PMC11274883, “Anticancer Effect of Pt^[sequence], Pt^II5MESS, Pt^II56MESS and Their Platinum(IV)-Dihydroxy Derivatives against Triple-Negative Breast Cancer and Cisplatin-Resistant Colorectal Cancer” (Cancers, 2024)

Columns and labels:
Type in all cases: cell-based
MDA−MB−231 cells [1] = test: TMRE mitochondrial membrane potential assay; conditions: complexes at IC50, FCCP 20 µM
Outline: (§1)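 Cells treated with each complex at its IC50 concentration for 24, 48 or 72 h, then stained with 1 µM TMRE for 30 min and washed before fluorescence scanning. Three independent experiments in triplicate.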

HT29 cells [2] = test: TMRE mitochondrial membrane potential assay; conditions: complexes at IC50, FCCP 20 µM
Outline: as §1

MDA−MB−231 cells [3] = test: Western blot protein expression; conditions: MDA−MB−231, IC50, 72 h
Description: (§2) Protein extraction was then performed on ice. Media were collected in Eppendorf tubes, and centrifuged at 500× g for 5 min at 4 °C. Meanwhile, 200 µL of lysis RIPA buffer, made up of 150 mM NaCl, 50 mM Tris-HCl, pH 8.0, 0.1% Triton X-100, 0.5% sodium deoxycholate, 0.1% SDS and 1 mM sodium orthovanadate, was added to each well, the cells were scrapped into the buffer, and added to the media-derived pellets. The tubes were placed on the shaker for 10 min at 4 °C. Then, cell extracts were centrifuged at 12,000× g for 15 min at 4 °C, and the supernatants (containing the proteins) were collected. The Bio-Rad-DC protein assay (Bio-Rad, Hercules, CA, USA) was used to assess protein content. Laemmli protein sample buffer (4×) with β-mercaptoethanol (9%) was used to prepare a final protein concentration of 20 µg. The samples were then heated at 100 °C for 5 min. A final volume of 30 µL of each sample was added per well and subjected to SDS-PAGE using Bolt 4–12% Bis-Tris gel (Thermo Fisher, Eugene, OR, USA) at 80 V for 30 min and then 120 V for 60 min with PageRuler™ Prestained Protein or SeeBlue Prestained Protein Ladder (Thermo Fisher, Eugene, OR, USA). Proteins were subsequently transferred to a 0.2 µm PVDF membrane (Amersham, Cytiya) using a semi-dry blot transfer. The membrane was then blocked in 5% BSA in TBST, for 1 h and probed overnight at 4 °C with primary antibodies against several cell proliferation, apoptotic, anti-apoptotic, microtubule and autophagic protein markers listed in Table S7 as per the manufacturer’s protocol. The primary antibody was then removed, washed three times for 10 min with TBST and then membranes were treated with either mouse or rabbit HRP-coupled secondary antibodies (1/3000) for 1 h and 30 min. Protein band detection was then performed using the chemiluminescence ECL kit (Thermo Fisher, Eugene, OR, USA). Blot images were obtained using the Odyssey® FC imaging system (LI-COR Biosciences, Lincoln, NE, USA) and band intensities were quantified relatively to glyceraldehyde-3-phosphate dehydrogenase (GAPDH) and then normalised each replicate gel to its corresponding no treatment control using the ImageJ v1.53t software (National Institutes of Health, Bethesda, MD, USA). Each marker results from the same experiment or parallel experiment where the gels were processed in parallel. Three independent experiments per marker were conducted.

HT29 cells [4] = test: Western blot protein expression; conditions: HT29, IC50, 72 h
Description: as §2

[5] = representative blot Figure S30G
[6] = representative blot Figure S30H

## Cc1cc2cccnc2c2ncccc12.N[C@H]1CCCC[C@@H]1N.O=[N+]([O-])[O-].O=[N+]([O-])[O-].[OH][Pt+2][OH] [Pt^IV5MESS(OH)2, [Pt(5-methyl-1,10-phenanthroline)(1S,2S-diaminocyclohexane)(dihydroxy)](NO3)2]
MDA−MB−231 cells [1]; MDA−MB−231, 24 h
  MtMp (mitochondrial membrane potential): 250.80 RFU
MDA−MB−231 cells [1]; MDA−MB−231, 48 h
  MtMp (mitochondrial membrane potential): 201.07 RFU
MDA−MB−231 cells [1]; MDA−MB−231, 72 h
  MtMp (mitochondrial membrane potential): 155.85 RFU
HT29 cells [2]; HT29, 24 h
  MtMp (mitochondrial membrane potential): 304.45 RFU
HT29 cells [2]; HT29, 48 h
  MtMp (mitochondrial membrane potential): 224.23 RFU
HT29 cells [2]; HT29, 72 h
  MtMp (mitochondrial membrane potential): 198.24 RFU
MDA−MB−231 cells [3]; representative blot Figure S24A
  β-actin/GAPDH normalized to control (1): 0.8788
MDA−MB−231 cells [3]; representative blot Figure S24B
  β-tubulin/GAPDH normalized to control (1): 0.3985
MDA−MB−231 cells [3]; representative blot Figure S24C
  α-tubulin/GAPDH normalized to control (1): 1.177
MDA−MB−231 cells [3]; representative blot Figure S25A
  p-AKT/AKT/GAPDH normalized to control (1): 0.9345
MDA−MB−231 cells [3]; representative blot Figure S25B
  p-ERK/ERK/GAPDH normalized to control (1): 0.144
MDA−MB−231 cells [3]; representative blot Figure S25C
  p53/GAPDH normalized to control (1): 1.183
MDA−MB−231 cells [3]; representative blot Figure S25D
  p21/GAPDH normalized to control (1): 1.042
MDA−MB−231 cells [3]; representative blot Figure S26A
  Bax/GAPDH normalized to control (1): 1.846
MDA−MB−231 cells [3]; representative blot Figure S26B
  Bcl2/GAPDH normalized to control (1): 0.7914
MDA−MB−231 cells [3]; representative blot Figure S26C
  Cytochrome C/GAPDH normalized to control (1): 2.795
MDA−MB−231 cells [3]; representative blot Figure S26D
  Procaspase 8/GAPDH normalized to control (1): 0.3546
MDA−MB−231 cells [3]; representative blot Figure S26E
  Cleaved BID/GAPDH normalized to control (1): 5.948
MDA−MB−231 cells [3]; representative blot Figure S26F
  Procaspase 9/GAPDH normalized to control (1): 0.3022
MDA−MB−231 cells [3]; representative blot Figure S26G
  Procaspase 3/GAPDH normalized to control (1): 0.7167
MDA−MB−231 cells [3]; representative blot Figure S26H
  PARP-1/GAPDH normalized to control (1): 0.5187
MDA−MB−231 cells [3]; representative blot Figure S27A
  Beclin1/GAPDH normalized to control (1): 0.9374
MDA−MB−231 cells [3]; representative blot Figure S27B
  ATG5/GAPDH normalized to control (1): 1.065
MDA−MB−231 cells [3]; representative blot Figure S27C
  ATG16L1/GAPDH normalized to control (1): 1.203
MDA−MB−231 cells [3]; representative blot Figure S27D
  ATG9A/GAPDH normalized to control (1): 0.3984
MDA−MB−231 cells [3]; representative blot Figure S27E
  ATG4B/GAPDH normalized to control (1): 2.797
MDA−MB−231 cells [3]; representative blot Figure S27F
  LC3B/GAPDH normalized to control (1): 0.6059
HT29 cells [4]; representative blot Figure S28A
  β-actin/GAPDH normalized to control (1): 0.2948
HT29 cells [4]; representative blot Figure S28B
  β-tubulin/GAPDH normalized to control (1): 0.1611
HT29 cells [4]; representative blot Figure S28C
  α-tubulin/GAPDH normalized to control (1): 0.1518
HT29 cells [4]; representative blot Figure S29A
  p-AKT/AKT/GAPDH normalized to control (1): 0.4249
HT29 cells [4]; representative blot Figure S29B
  p-ERK/ERK/GAPDH normalized to control (1): 1.297
HT29 cells [4]; representative blot Figure S29C
  p53/GAPDH normalized to control (1): 3.349
HT29 cells [4]; representative blot Figure S29D
  p21/GAPDH normalized to control (1): 2.658
HT29 cells [4]; representative blot Figure S30A
  Bax/GAPDH normalized to control (1): 3.075
HT29 cells [4]; representative blot Figure S30B
  Bcl2/GAPDH normalized to control (1): 0.4381
HT29 cells [4]; representative blot Figure S30C
  Cyt C/GAPDH normalized to control (1): 6.184
HT29 cells [4]; representative blot Figure S30D
  Procaspase 8/GAPDH normalized to control (1): 0.4372
HT29 cells [4]; representative blot Figure S30E
  Cleaved BID/GAPDH normalized to control (1): 2.712
HT29 cells [4]; representative blot Figure S30F
  Procaspase 9/GAPDH normalized to control (1): 0.2026
HT29 cells [4]; [5]
  Cleaved caspase 3/GAPDH normalized to control (1): 7.887
  Procaspase 3/GAPDH normalized to control (1): 1.238
HT29 cells [4]; [6]
  Cleaved PARP-1/GAPDH normalized to control (1): 5.761
  PARP-1/GAPDH normalized to control (1): 0.6207
HT29 cells [4]; representative blot Figure S31A
  Beclin1/GAPDH normalized to control (1): 6.943
HT29 cells [4]; representative blot Figure S31B
  ATG5/GAPDH normalized to control (1): 0.2364
HT29 cells [4]; representative blot Figure S31C
  ATG16L1/GAPDH normalized to control (1): 2.006
HT29 cells [4]; representative blot Figure S31D
  ATG9A/GAPDH normalized to control (1): 2.334
HT29 cells [4]; representative blot Figure S31E
  ATG4B/GAPDH normalized to control (1): 0.5922
HT29 cells [4]; representative blot Figure S31F
  LC3B/GAPDH normalized to control (1): 1.713
